Our source for the IC50 values is PubChem BioAssay AID1117327 (Cheminformatics & Chemogenomics Research Group (CCRG), …, 2015).

Activity calls are given as the source filed them. How the calls were made is not given here. A value given as a limit tells only on which side of the number the result lay.

The assay relates to C2C12 + WNT3A conditioned medium, alkaline phosphatase. Nature of the assay: alkaline phosphatase induction in C2C12 cells, dose response, cell-based, WNT3A-conditioned medium (AID 1117327).
A word on the IC50: it is the point on the concentration scale where inhibition reaches its midpoint. For the compound `CC[C@@]1(O)C(=O)OCc2c1cc1n(c2=O)Cc2cc3c(CN(C)C)c(O)ccc3nc2-1`, the concentration for half-maximal inhibition (IC50) is 17.9 nM.
Under `O[C@@H](c1cc(C(F)(F)F)nc2c(C(F)(F)F)cccc12)[C@H]1CCCCN1` stands > 20000 nM (inactive).
Next, `COC(=O)Nc1nc2ccc(Sc3ccccc3)cc2[nH]1`: 438 nM.
Under `O=C1C2CC=CCC2C(=O)N1SC(Cl)(Cl)Cl` (stereo not given) stands 511 nM; under `COC(=O)Nc1nc2ccc(S(=O)c3ccccc3)cc2[nH]1` (stereo not given), 559 nM.
